From patent publication US20100323989A1, “PHARMACEUTICAL COMBINATIONS USEFUL FOR TREATING HCV” (Gilead Sciences, Inc., priority 2009, published 2010)

Columns and labels:
[1] = tested on: 1b Con-1 PI-Luc replicon with NS5B polymerase mutation M423T; format: cell-based, HCV genotype 1b; conditions: ratio of mutant EC50 to wild type EC50, NS5B M423T
[2] = tested on: 1b Con-1 PI-Luc replicon with NS5B polymerase mutation M414T; format: cell-based, HCV genotype 1b; conditions: ratio of mutant EC50 to wild type EC50, NS5B M414T
[3] = tested on: 1b Con-1 PI-Luc replicon with NS5B polymerase mutations C316Y/C445F/Y452H; format: cell-based, HCV genotype 1b; conditions: ratio of mutant EC50 to wild type EC50, NS5B C316Y/C445F/Y452H
[4] = tested on: mutant 1b Con-1 PI-Luc replicons (major HCV NS5B polymerase inhibitor resistance mutations); test: Transient transfection replicon assay, panel of NS5B polymerase inhibitor resistance mutations; format: cell-based, HCV genotype 1b; conditions: against all NS5B mutations tested
[5] = Multiple-dose pharmacokinetic interaction study in healthy subjects (Example 5); format: in vivo, human
Description: Serial blood samples for analysis of plasma concentrations of Compound 2 were collected up to 120 hours after the morning dose on Days 7 and 21 to determine systemic drug exposure. Glossary of Abbreviations and Definitions of Terms Used in Example 5 • AUCtau The area under the concentration versus time curve over the dosing interval • AUC0-last Area under the concentration versus time curve from time zero to the last quantifiable concentration • AUCinf Area under the concentration versus time curve extrapolated to infinite time, calculated as AUC0-last+(Clast/λz) • BID twice daily • CI confidence interval • Cmax The maximum observed concentration of drug in plasma • Ctau The observed drug concentration at the end of the dosing interval • CV coefficient of variation

[6] = tested on: panel of protease inhibitor resistance-associated-mutations (NS3) in 1b PI-luc replicon; conditions: all NS3 protease mutants tested
[7] = Compound 1 (40 mg BID) + Compound 2 (75 mg BID) / Compound 2 alone
[8] = coadministration of Compound 1 (40 mg BID) with Compound 2 (75 mg BID) vs Compound 2 alone

Row | SMILES | Fold Resistance M423T [1] [fold] | Fold Resistance M414T [2] [fold] | Fold Resistance C316Y/C445F/Y452H [3] [fold] | fold change in EC50 values from wild-type [4] [fold] | Compound 2 AUCtau, % Geometric Least Square Mean Ratio (90% CI) [5, 7] | Compound 2 Cmax, % Geometric Least Square Mean Ratio (90% CI) [5, 7] | Compound 2 Ctau, % Geometric Least Square Mean Ratio (90% CI) [5, 7] | decrease in AUCtau of Compound 2 [5, 8] [%] | decrease in Cmax of Compound 2 [5, 8] [%] | decrease in Ctau of Compound 2 [5, 8] [%] | AUC ([5]; plasma, human, oral, Compound 2 (75 mg BID) alone, Day 7, read-out: Compound 2 AUCtau, Mean (% CV)) [ng·h/mL] | fold change in EC50 values from wild-type [6] [fold]
1 | COc1ccc2c(O[C@@H]3C[C@H]4C(=O)N[C@]5(P(=O)(O)Cc6c(F)cccc6F)C[C@H]5CCCCCCC[C@H](NC(=O)OC5CCCC5)C(=O)N4C3)cc(-c3csc(NC(C)C)n3)nc2c1Cl [Compound 2] | 1.1 | 2.0 | 2.1 | ≤ 2.1 | 75.9 (62.0, 93.0) % | 80.0 (66.7, 95.6) % | 70.0 (55.9, 87.5) % | 24 | 20 | 30 | 35300 | –
2 | Fc1ccccc1-c1nc2ccn(Cc3ccc(-c4ccc(C(F)(F)F)cc4C(F)(F)F)nn3)cc-2n1 [Compound 1, 5-({6-[2,4-bis(trifluoromethyl)phenyl]pyridazin-3-yl}methyl)-2-(2-fluorophenyl)-5H-imidazo[4,5-c]pyridine] | 0.8 | 0.7 | >343 | – | – | – | – | – | – | – | – | ≤ 1.2
